Experimental data taken from the NIST ThermoML archive (doi:10.1007/s10765-016-2150-1).

Conditions: Liquid, Oscillating viscometer

O=[N+]([O-])[O-].[Li+] [lithium nitrate]
Conditions | viscosity [mPa·s]
544.9 K | 5.15
554.5 K | 4.457
571.7 K | 4.195
592.1 K | 3.854
595.9 K | 3.618
597 K | 3.72
601.3 K | 3.549
603.3 K | 3.373
619.2 K | 3.075
623.2 K | 3.024
627.2 K | 3.04
662.7 K | 2.448
688.8 K | 2.169
689.2 K | 2.094
